# System: K98450-129-R-PDC complex spheroid growth, percent test/control
# Assay: Anticancer human tumor K98450-129-R-PDC patient-derived colon adenocarcinoma cell line growth inhibition [RAS]
# Conditions: for IC50: curve of first compound; for viability, T/C: stronger effect = lower value
# Procedure, shortened: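 Tumour cells grown as complex spheroids with HUVEC endothelial cells and mesenchymal stem cells, treated with RAS pathway inhibitor combinations. Each agent spans half-log steps from near clinical Cmax, or 10 microM where Cmax is unknown.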
# [1] = second compound 0.000949 µM, first compound 0.0316 µM
# [2] = second compound 0.000949 µM, first compound 0.1 µM
# [3] = second compound 0.000949 µM, first compound 0.316 µM
# [4] = second compound 0.000949 µM, first compound 1 µM
# [5] = second compound 0.000949 µM, first compound 3.16 µM
# [6] = second compound 0.000949 µM, first compound 10 µM
# [7] = second compound 0.003 µM, first compound 0.0316 µM
# [8] = second compound 0.003 µM, first compound 0.1 µM
# [9] = second compound 0.003 µM, first compound 0.316 µM
# [10] = second compound 0.003 µM, first compound 1 µM
# [11] = second compound 0.003 µM, first compound 3.16 µM
# [12] = second compound 0.003 µM, first compound 10 µM
# [13] = second compound 0.00949 µM, first compound 0.0316 µM
# [14] = second compound 0.00949 µM, first compound 0.1 µM
# [15] = second compound 0.00949 µM, first compound 0.316 µM
# [16] = second compound 0.00949 µM, first compound 1 µM
# [17] = second compound 0.00949 µM, first compound 3.16 µM
# [18] = second compound 0.00949 µM, first compound 10 µM
# [19] = second compound 0.03 µM, first compound 0.0316 µM
# [20] = second compound 0.03 µM, first compound 0.1 µM
# [21] = second compound 0.03 µM, first compound 0.316 µM
# [22] = second compound 0.03 µM, first compound 1 µM
# [23] = second compound 0.03 µM, first compound 3.16 µM
# [24] = second compound 0.03 µM, first compound 10 µM
# [25] = second compound 0.0949 µM, first compound 0.0316 µM
# [26] = second compound 0.0949 µM, first compound 0.1 µM
# [27] = second compound 0.0949 µM, first compound 0.316 µM
# [28] = second compound 0.0949 µM, first compound 1 µM
# [29] = second compound 0.0949 µM, first compound 3.16 µM
# [30] = second compound 0.0949 µM, first compound 10 µM
# [31] = second compound 0.3 µM, first compound 0.0316 µM
# [32] = second compound 0.3 µM, first compound 0.1 µM
# [33] = second compound 0.3 µM, first compound 0.316 µM
# [34] = second compound 0.3 µM, first compound 1 µM
# [35] = second compound 0.3 µM, first compound 3.16 µM
# [36] = second compound 0.3 µM, first compound 10 µM
# 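Further: spheroids exposed to agents for seven days before the viability readout.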
# 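Wherever viability, T/C is given: luminescence used as a proxy for viable cell amount.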
smiles,measurement,setting,value
CC1(O)CCCC1n1c(=O)c(C(F)F)cc2cnc(NC3CCN(S(C)(=O)=O)CC3)nc21 (centres undefined) + CCn1c(-c2cccnc2C(C)OC)c2c3cc(ccc31)N1CCOC(CC(NC(=O)C(C(C)C)N(C)C(=O)C3(F)CCN(C(=O)C#CC(C)(C)N(C)C)CC3)C(=O)N3CCCC(N3)C(=O)OCC(C)(C)C2)C1,IC50,second compound 0.000949 µM,4320 nM
same,IC50,second compound 0.003 µM,376 nM
same,IC50,second compound 0.00949 µM,< 31.6 nM
same,IC50,second compound 0.03 µM,< 31.6 nM
same,IC50,second compound 0.0949 µM,< 31.6 nM
same,IC50,second compound 0.3 µM,< 31.6 nM
same,"viability, T/C",[1],76.1%
same,"viability, T/C",[2],64%
same,"viability, T/C",[3],68.3%
same,"viability, T/C",[4],59.1%
same,"viability, T/C",[5],51.5%
same,"viability, T/C",[6],44.4%
same,"viability, T/C",[7],58.2%
same,"viability, T/C",[8],55.6%
same,"viability, T/C",[9],52.6%
same,"viability, T/C",[10],38.6%
same,"viability, T/C",[11],34.7%
same,"viability, T/C",[12],31%
same,"viability, T/C",[13],44.8%
same,"viability, T/C",[14],38.5%
same,"viability, T/C",[15],38.3%
same,"viability, T/C",[16],28.5%
same,"viability, T/C",[17],29.3%
same,"viability, T/C",[18],27.1%
same,"viability, T/C",[19],37.4%
same,"viability, T/C",[20],41.1%
same,"viability, T/C",[21],30.1%
same,"viability, T/C",[22],26.1%
same,"viability, T/C",[23],31.4%
same,"viability, T/C",[24],28.1%
same,"viability, T/C",[25],31.5%
same,"viability, T/C",[26],31.9%
same,"viability, T/C",[27],32.2%
same,"viability, T/C",[28],25.3%
same,"viability, T/C",[29],29.8%
same,"viability, T/C",[30],22.7%
same,"viability, T/C",[31],31.9%
same,"viability, T/C",[32],33.7%
same,"viability, T/C",[33],32.6%
same,"viability, T/C",[34],26.8%
same,"viability, T/C",[35],29.5%
same,"viability, T/C",[36],19.6%
CCC(CC)c1cc(NC2CCC(N)C2)n2nccc2n1 (centres undefined) + CCn1c(-c2cccnc2C(C)OC)c2c3cc(ccc31)N1CCOC(CC(NC(=O)C(C(C)C)N(C)C(=O)C3(F)CCN(C(=O)C#CC(C)(C)N(C)C)CC3)C(=O)N3CCCC(N3)C(=O)OCC(C)(C)C2)C1,IC50,second compound 0.000949 µM,2930 nM
same,IC50,second compound 0.003 µM,545 nM
same,IC50,second compound 0.00949 µM,< 31.6 nM
same,IC50,second compound 0.03 µM,< 31.6 nM
same,IC50,second compound 0.0949 µM,< 31.6 nM
same,IC50,second compound 0.3 µM,< 31.6 nM
same,"viability, T/C",[1],77.1%
same,"viability, T/C",[2],72.7%
same,"viability, T/C",[3],73%
same,"viability, T/C",[4],59.7%
same,"viability, T/C",[5],52.3%
same,"viability, T/C",[6],11.8%
same,"viability, T/C",[7],65.2%
same,"viability, T/C",[8],59%
same,"viability, T/C",[9],56.8%
same,"viability, T/C",[10],39.4%
same,"viability, T/C",[11],36.9%
same,"viability, T/C",[12],10.6%
same,"viability, T/C",[13],44.4%
same,"viability, T/C",[14],53.3%
same,"viability, T/C",[15],48.8%
same,"viability, T/C",[16],35.4%
same,"viability, T/C",[17],20.8%
same,"viability, T/C",[18],11.9%
same,"viability, T/C",[19],33.7%
same,"viability, T/C",[20],42.4%
same,"viability, T/C",[21],40.2%
same,"viability, T/C",[22],23.1%
same,"viability, T/C",[23],20.5%
same,"viability, T/C",[24],10.4%
same,"viability, T/C",[25],29.9%
same,"viability, T/C",[26],33.4%
same,"viability, T/C",[27],38.3%
same,"viability, T/C",[28],36.3%
same,"viability, T/C",[29],11.8%
same,"viability, T/C",[30],9.38%
same,"viability, T/C",[31],34.1%
same,"viability, T/C",[32],36.5%
same,"viability, T/C",[33],39.2%
same,"viability, T/C",[34],31.3%
same,"viability, T/C",[35],12.7%
same,"viability, T/C",[36],9.36%

# Reference: PubChem BioAssay AID2060891 (Molecular Pharmacology Branch, DTP, NCI, 2025)
